Experimental data taken from ChEMBL document CHEMBL4393657, “Tetrazole hybrids and their antifungal activities” (2019).
Converted amounts (≈) assume the structure as drawn.

Legend:
Format in all cases: functional
[1] = tested on: Cryptococcus neoformans; assay: Antifungal activity against Cryptococcus neoformans LA314 assessed as reduction in fungal cell growth incubated for 48 hrs by broth microdilution method; details: LA314, 48 h
[2] = tested on: Aspergillus niger; assay: Antifungal activity against Aspergillus niger assessed as reduction in fungal cell growth incubated for 72 hrs by broth microdilution method
[3] = tested on: Candida tropicalis; assay: Antifungal activity against Candida tropicalis assessed as reduction in fungal cell growth incubated for 48 hrs by broth microdilution method
[4] = tested on: Nakaseomyces glabratus; assay: Antifungal activity against Candida glabrata assessed as reduction in fungal cell growth incubated for 48 hrs by broth microdilution method
[5] = tested on: Candida albicans; assay: Antifungal activity against Candida albicans assessed as reduction in fungal cell growth incubated for 48 hrs by broth microdilution method
[6] = tested on: Candida parapsilosis; assay: Antifungal activity against Candida parapsilosis ATCC 22019 assessed as reduction in fungal cell growth incubated for 48 hrs by broth microdilution method; details: Lodderomyces parapsilosis, ATCC 22019, 48 h
[7] = tested on: Pichia kudriavzevii; assay: Antifungal activity against Candida krusei assessed as reduction in fungal cell growth incubated for 48 hrs by broth microdilution method
[8] = tested on: Candida albicans; assay: Antifungal activity against Candida albicans assessed as reduction in fungal cell growth incubated for 24 and 72 hrs by cup plate method
[9] = tested on: Aspergillus flavus; assay: Antifungal activity against Aspergillus flavus assessed as reduction in fungal cell growth incubated for 24 and 72 hrs by cup plate method
[10] = tested on: Fusarium oxysporum; assay: Antifungal activity against Fusarium oxysporum assessed as reduction in fungal cell growth incubated for 24 and 72 hrs by cup plate method

SMILES	MIC [1] [µg/mL]	MIC [2] [µg/mL]	MIC [3] [µg/mL]	MIC [4] [µg/mL]	MIC [5] [µg/mL]	MIC [6] [µg/mL]	MIC [7] [µg/mL]	MIC [8] [µg/mL]	MIC [9] [µg/mL]	MIC [10] [µg/mL]
OC(Cn1cncn1)(Cn1nnnc1CCN1CCN(C(c2ccccc2)c2ccccc2)CC1)c1ccc(F)cc1F (centres undefined)	0.5 to 16 (≈ 0.854 to 27.3 µM)	0.5 to 16 (≈ 0.854 to 27.3 µM)	0.5 to 16 (≈ 0.854 to 27.3 µM)	0.5 to 16 (≈ 0.854 to 27.3 µM)	0.5 to 16 (≈ 0.854 to 27.3 µM)	0.5 to 16 (≈ 0.854 to 27.3 µM)	0.5 to 16 (≈ 0.854 to 27.3 µM)	–	–	–
CC(n1nnnc1CCN1CCN(c2ccccn2)CC1)C(O)(Cn1cncn1)c1ccc(F)cc1F (centres undefined)	0.5 to 16 (≈ 0.979 to 31.3 µM)	0.5 to 16 (≈ 0.979 to 31.3 µM)	0.5 to 16 (≈ 0.979 to 31.3 µM)	0.5 to 16 (≈ 0.979 to 31.3 µM)	0.5 to 16 (≈ 0.979 to 31.3 µM)	0.5 to 16 (≈ 0.979 to 31.3 µM)	0.5 to 16 (≈ 0.979 to 31.3 µM)	–	–	–
CC(n1nnnc1CCN1CCN(c2ccc([N+](=O)[O-])cc2)CC1)C(O)(Cn1cncn1)c1ccc(F)cc1F (centres undefined)	0.5 to 16 (≈ 0.902 to 28.9 µM)	0.5 to 16 (≈ 0.902 to 28.9 µM)	0.5 to 16 (≈ 0.902 to 28.9 µM)	0.5 to 16 (≈ 0.902 to 28.9 µM)	0.5 to 16 (≈ 0.902 to 28.9 µM)	0.5 to 16 (≈ 0.902 to 28.9 µM)	0.5 to 16 (≈ 0.902 to 28.9 µM)	–	–	–
Cc1ccc2cc(C3CC(c4cc(Br)ccc4O)=NN3)c3nnnn3c2c1 (centres undefined)	–	–	–	–	–	–	–	25 to 100 (≈ 59.1 to 236 µM)	25 to 100 (≈ 59.1 to 236 µM)	25 to 100 (≈ 59.1 to 236 µM)
Cc1cccc2c1cc(/C=C/C(=O)c1cc(Br)ccc1O)c1nnnn12	–	–	–	–	–	–	–	25 to 100 (≈ 61.1 to 244 µM)	25 to 100 (≈ 61.1 to 244 µM)	25 to 100 (≈ 61.1 to 244 µM)
Cc1ccc2c(c1)cc(/C=C/C(=O)c1cc(Br)ccc1O)c1nnnn12	–	–	–	–	–	–	–	25 to 100 (≈ 61.1 to 244 µM)	25 to 100 (≈ 61.1 to 244 µM)	25 to 100 (≈ 61.1 to 244 µM)
C[C@H](n1nnnc1CCN1CCN(c2ccccc2Cl)CC1)[C@](O)(Cn1cncn1)c1ccc(F)cc1F	0.12 to 16 (≈ 0.221 to 29.4 µM)	0.12 to 16 (≈ 0.221 to 29.4 µM)	0.12 to 16 (≈ 0.221 to 29.4 µM)	0.12 to 16 (≈ 0.221 to 29.4 µM)	0.12 to 16 (≈ 0.221 to 29.4 µM)	0.12 to 16 (≈ 0.221 to 29.4 µM)	0.12 to 16 (≈ 0.221 to 29.4 µM)	–	–	–
O=[N+]([O-])c1ccc(N2CCN(CCc3nnn(CC(O)(Cn4cncn4)c4ccc(F)cc4F)n3)CC2)cc1 (centres undefined)	1 to 16 (≈ 1.85 to 29.6 µM)	1 to 16 (≈ 1.85 to 29.6 µM)	1 to 16 (≈ 1.85 to 29.6 µM)	1 to 16 (≈ 1.85 to 29.6 µM)	1 to 16 (≈ 1.85 to 29.6 µM)	1 to 16 (≈ 1.85 to 29.6 µM)	1 to 16 (≈ 1.85 to 29.6 µM)	–	–	–
C[C@H](n1nnc(CCN2CCN(c3cccc(Cl)c3)CC2)n1)[C@](O)(Cn1cncn1)c1ccc(F)cc1F	0.25 to 16 (≈ 0.46 to 29.4 µM)	0.25 to 16 (≈ 0.46 to 29.4 µM)	0.25 to 16 (≈ 0.46 to 29.4 µM)	0.25 to 16 (≈ 0.46 to 29.4 µM)	0.25 to 16 (≈ 0.46 to 29.4 µM)	0.25 to 16 (≈ 0.46 to 29.4 µM)	0.25 to 16 (≈ 0.46 to 29.4 µM)	–	–	–
CC(n1nnnc1CCN1CCN(Cc2ccccc2)CC1)C(O)(Cn1cncn1)c1ccc(F)cc1F (centres undefined)	0.5 to 16 (≈ 0.955 to 30.6 µM)	0.5 to 16 (≈ 0.955 to 30.6 µM)	0.5 to 16 (≈ 0.955 to 30.6 µM)	0.5 to 16 (≈ 0.955 to 30.6 µM)	0.5 to 16 (≈ 0.955 to 30.6 µM)	0.5 to 16 (≈ 0.955 to 30.6 µM)	0.5 to 16 (≈ 0.955 to 30.6 µM)	–	–	–
C[C@H](n1nnc(CCN2CCN(c3ccccc3Cl)CC2)n1)[C@](O)(Cn1cncn1)c1ccc(F)cc1F	0.25 to 16 (≈ 0.46 to 29.4 µM)	0.25 to 16 (≈ 0.46 to 29.4 µM)	0.25 to 16 (≈ 0.46 to 29.4 µM)	0.25 to 16 (≈ 0.46 to 29.4 µM)	0.25 to 16 (≈ 0.46 to 29.4 µM)	0.25 to 16 (≈ 0.46 to 29.4 µM)	0.25 to 16 (≈ 0.46 to 29.4 µM)	–	–	–
CCCCOc1ccccc1N1CCN(CCc2nnn([C@@H](C)[C@](O)(Cn3cncn3)c3ccc(F)cc3F)n2)CC1	0.25 to 16 (≈ 0.43 to 27.5 µM)	0.25 to 16 (≈ 0.43 to 27.5 µM)	0.25 to 16 (≈ 0.43 to 27.5 µM)	0.25 to 16 (≈ 0.43 to 27.5 µM)	0.25 to 16 (≈ 0.43 to 27.5 µM)	0.25 to 16 (≈ 0.43 to 27.5 µM)	0.25 to 16 (≈ 0.43 to 27.5 µM)	–	–	–
OC(Cn1cncn1)(Cn1nnnc1CCN1CCN(c2ccc(Cl)cc2)CC1)c1ccc(F)cc1F (centres undefined)	0.5 to 16 (≈ 0.943 to 30.2 µM)	0.5 to 16 (≈ 0.943 to 30.2 µM)	0.5 to 16 (≈ 0.943 to 30.2 µM)	0.5 to 16 (≈ 0.943 to 30.2 µM)	0.5 to 16 (≈ 0.943 to 30.2 µM)	0.5 to 16 (≈ 0.943 to 30.2 µM)	0.5 to 16 (≈ 0.943 to 30.2 µM)	–	–	–
